Assays:
[1] = test system: step 6 (EPSPS) of Neisseria gonorrhoeae; test: N−1 assay for molecular target of glyphosate, [Sau HGC] lacking step 6; assay type: cell-based, yeast (aro1Δ) carrying Neisseria gonorrhoeae pathway; conditions: aro1Δ [Ngo] yeast with [Sau HGC] lacking step 6, −AAA, 0.25% glyphosate
Excerpt: (§1) FIG. 6. Molecular target identification of the shikimate pathway inhibitor glyphosate in the yeast avatar system. Yeast cells lacking ARO1 (aro1Δ) carrying the Neisseria gonorrhoeae pathway ([Ngo]) or an empty vector (empty) were co-transformed with a full-length Staphylococcus aureus pathways ([Sau HGC]), one of five derivatives of [Sau HGC] lacking a single enzymatic activity (step 2, step 3, step 4, step 5, step 6), or an empty vector (empty) lacking all shikimate pathway enzymatic activities. Cells were plated on replete medium including aromatic amino acids (+AAA) or selective medium lacking aromatic amino acids (−AAA). 0.25% glyphosate (vol/vol of a commercially available 41% solution of glyphosate) was added to the plates where indicated. Cell growth indicates complementation and absence of cell growth indicates no complementation.
(§2) As discussed above, five steps of the endogenous shikimate pathway are provided by a single gene, ARO1, which encodes a penta-functional protein (FIG. 1, 2). […] To distinguish between these possibilities and determine whether any of the heterologous enzymatic activities are functional in yeast, the “N−1” assay can be used. […] Each of the five strains can then be evaluated for complementation on medium lacking aromatic amino acids. […]

[2] = test system: yeast avatars expressing heterologous shikimate pathways (EPSPS enzyme); test: Yeast avatar glyphosate sensitivity assay (panel of avatars); assay type: cell-based, Saccharomyces cerevisiae
[3] = test system: Neisseria gonorrhoeae pathway; test: Yeast avatar glyphosate sensitivity assay, Neisseria gonorrhoeae pathway; assay type: cell-based; conditions: aro1Δ yeast carrying Neisseria gonorrhoeae pathway, 0.25% glyphosate, FIG. 3
[4] = target: step 2 of the pathway, DHQS (Escherichia coli, UniProt P07639); conditions: reference (25); cited from earlier work
Sequence of step 2 of the pathway, DHQS (P07639 whole entry): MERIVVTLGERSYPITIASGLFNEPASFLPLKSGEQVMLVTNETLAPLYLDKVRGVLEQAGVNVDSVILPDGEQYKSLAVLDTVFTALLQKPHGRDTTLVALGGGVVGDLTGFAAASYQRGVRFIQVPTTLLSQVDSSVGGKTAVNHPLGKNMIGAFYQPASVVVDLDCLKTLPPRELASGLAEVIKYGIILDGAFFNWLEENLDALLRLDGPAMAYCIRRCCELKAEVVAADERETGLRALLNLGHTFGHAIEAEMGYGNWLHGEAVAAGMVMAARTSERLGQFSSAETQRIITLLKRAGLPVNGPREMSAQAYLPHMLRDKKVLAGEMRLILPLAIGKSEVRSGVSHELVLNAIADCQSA

[5] = test system: Staphylococcus aureus pathway; test: Yeast avatar glyphosate sensitivity assay, Staphylococcus aureus pathway; assay type: cell-based; conditions: aro1Δ yeast carrying Staphylococcus aureus pathway, 0.25% glyphosate, FIG. 3
[6] = target: T1, step 2 (DHQS) of Neisseria gonorrhoeae (Neisseria gonorrhoeae, UniProt Q5FAD4); test: N−1 assay for molecular target of glyphosate, [Sau HGC] lacking step 2; assay type: cell-based; conditions: aro1Δ [Ngo] yeast with [Sau HGC] lacking step 2, −AAA, 0.25% glyphosate
T1 construct: expressed in transfected cells; host or cells: Saccharomyces cerevisiae aro1Δ, co-transformed with [Sau HGC] lacking step 2
T1 sequence (Q5FAD4 whole entry): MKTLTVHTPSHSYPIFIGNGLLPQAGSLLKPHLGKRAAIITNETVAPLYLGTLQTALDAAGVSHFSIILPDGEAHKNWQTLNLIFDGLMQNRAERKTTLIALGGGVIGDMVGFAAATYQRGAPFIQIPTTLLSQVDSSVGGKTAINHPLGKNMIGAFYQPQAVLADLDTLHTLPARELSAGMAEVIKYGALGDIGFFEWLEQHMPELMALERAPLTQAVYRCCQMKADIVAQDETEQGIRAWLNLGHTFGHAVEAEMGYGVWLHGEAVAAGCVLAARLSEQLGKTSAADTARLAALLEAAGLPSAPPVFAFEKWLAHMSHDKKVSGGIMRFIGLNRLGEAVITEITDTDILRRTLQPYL
Excerpt: as §1, §2

Structure (SMILES): O=C(O)CNCP(=O)(O)O [glyphosate]
- cell growth [1]: completely inhibited
- sensitivity of enzymatic activity to glyphosate [1]: sensitive
- ability of yeast avatars to grow on glyphosate ([2]; 0.25% glyphosate (vol/vol of 41% solution), medium lacking aromatic amino acids, 6 days at 30° C., a number of avatars): sensitive
- glyphosate sensitivity upon supplementation of aromatic amino acids ([2]; 0.25% glyphosate, plus tryptophan, phenylalanine and tyrosine): glyphosate sensitivity was overcome
- growth of avatar on glyphosate (sensitivity/resistance) [3]: demonstrated sensitivity
- inhibition of DHQS [4]: inhibits
- growth of avatar on glyphosate (sensitivity/resistance) [5]: resistant
- cell growth [6]: completely inhibited
- sensitivity of enzymatic activity to glyphosate [6]: sensitive

— patent US10865417B2, “Yeast synthetic biology platform for identifying shikimate pathway enzyme inhibitors” (New York University, priority 2018, dated 2020)
